Legend:
Assay type in all cases: cell-based
143B cells = assay: CellTiter-Glo cell viability, 143B; conditions: 72 h
Procedure: (§1) The cell viability of 50 cancer cell lines was studied after treatment with Compound 121. Inhibition concentration values at 50% (IC50) were determined using CellTiter-Glo luminescent cell viability assay after incubation with different compound concentrations. GI50 values were determined according to the examples described above. Each cell line was treated with Compound 121, a standard chemotherapy drug as a reference control, and culture medium as a vehicle control.
(§2) All cells were cultured in media supplemented with 10-15% FBS at 37° C. in the presence of 5% CO2 and at 95% humidity. The culture medium was purchased from GIBCO or Sigma, USA. Cisplatin was chosen as the reference control and purchased from Hospira Australia Pty Ltd. The cell lines studied are presented in Table 5.
(§3) Cells were harvested during a logarithmic growth period and cell number count was determined using Count-star. Cell concentrations were adjusted to 4.44×10^4 cells/mL with respective culture medium. 90 μL of cell suspensions were added to two 96-well plates (plates A and B) with a final cell density of 4×10^3 cells/well.
(§4) 10 μL of culture medium was added to each well of plate A for TO reading. The plate was allowed to equilibrate at room temperature for approximately 30 min. 50 μL of CellTiter-Glo was added to each well and the contents were mixed for 5 min on an orbital shaker to induce cell lysis. The plate was allowed to incubate at room temperature for 20 min to stabilize luminescent signal.
(§5) 10 μM Compound 121 in media was serially diluted 3.16-fold to achieve 9 dose levels. Similarly, 100 μM reference control in media was serially diluted 3.16-fold to prepare reference control solutions. 10 μL drug solution and 10 μL of reference control was dispensed into each well in plate B.
(§6) Test plate B was incubated for 72 h in a humidified incubator at 37° C. in the presence of 5% CO2 and then subjected to CTG assay. The plate was allowed to equilibrate at room temperature for about 30 min. 50 μL of CellTiter-Glo was added to each well and the contents were mixed for 5 min on an orbital shaker to induce cell lysis. The plate was allowed to incubate at room temperature for 20 min to stabilize luminescent signal.
(§7) IC50 and GI50 values for each of the 50 cell lines are presented in Table 6 and were calculated based on the dose-response curves depicted in FIGS. 1-50. The dose-response curves were fitted using nonlinear regression model with a sigmoidal dose response. The formula for calculating survival rate was calculated by the formula:
(§8) Survival rate (%)=(LumTest article−LumMedium control)/(LumNone treated−LumMedium control)×100.

HT-1080 cells = assay: CellTiter-Glo cell viability, HT-1080; conditions: 72 h
Procedure: as §1, §2, §3, §4, §5, §6, §7, §8

KP4 cells = assay: CellTiter-Glo cell viability, KP4; conditions: 72 h
Procedure: as §1, §2, §3, §4, §5, §6, §7, §8

HCT-15 cells = assay: CellTiter-Glo cell viability, HCT-15; conditions: 72 h
Procedure: as §1, §2, §3, §4, §5, §6, §7, §8

MDA-MB-453 cells = assay: CellTiter-Glo cell viability, MDA-MB-453; conditions: 72 h
Procedure: as §1, §2, §3, §4, §5, §6, §7, §8

JHH-5 cells = assay: CellTiter-Glo cell viability, JHH-5; conditions: 72 h
Procedure: as §1, §2, §3, §4, §5, §6, §7, §8

A-172 cells = assay: CellTiter-Glo cell viability, A-172; conditions: 72 h
Procedure: as §1, §2, §3, §4, §5, §6, §7, §8

NCI-H1155 cells = assay: CellTiter-Glo cell viability, NCI-H1155; conditions: 72 h
Procedure: as §1, §2, §3, §4, §5, §6, §7, §8

MX-1 cells = assay: CellTiter-Glo cell viability, MX-1; conditions: 72 h
Procedure: as §1, §2, §3, §4, §5, §6, §7, §8

HUH-7 cells = assay: CellTiter-Glo cell viability, HUH-7; conditions: 72 h
Procedure: as §1, §2, §3, §4, §5, §6, §7, §8

HeLa cells = assay: CellTiter-Glo cell viability, HeLa; conditions: 72 h
Procedure: as §1, §2, §3, §4, §5, §6, §7, §8

NCI-H1975 cells = assay: CellTiter-Glo cell viability, NCI-H1975; conditions: 72 h
Procedure: as §1, §2, §3, §4, §5, §6, §7, §8

HL-60 cells = assay: CellTiter-Glo cell viability, HL-60; conditions: 72 h
Procedure: as §1, §2, §3, §4, §5, §6, §7, §8

KARPAS-299 cells = assay: CellTiter-Glo cell viability, KARPAS-299; conditions: 72 h
Procedure: as §1, §2, §3, §4, §5, §6, §7, §8

NCI-H209 cells = assay: CellTiter-Glo cell viability, NCI-H209; conditions: 72 h
Procedure: as §1, §2, §3, §4, §5, §6, §7, §8

PC-3 cells = assay: CellTiter-Glo cell viability, PC-3; conditions: 72 h
Procedure: as §1, §2, §3, §4, §5, §6, §7, §8

MES-SA/DX5 cells = assay: CellTiter-Glo cell viability, MES-SA/DX5; conditions: 72 h
Procedure: as §1, §2, §3, §4, §5, §6, §7, §8

HuT 78 cells = assay: CellTiter-Glo cell viability, HuT 78; conditions: 72 h
Procedure: as §1, §2, §3, §4, §5, §6, §7, §8

A2058 cells = assay: CellTiter-Glo cell viability, A2058; conditions: 72 h
Procedure: as §1, §2, §3, §4, §5, §6, §7, §8

SNU-5 cells = assay: CellTiter-Glo cell viability, SNU-5; conditions: SN1J-5 cells, 72 h
Procedure: as §1, §2, §3, §4, §5, §6, §7, §8

EBC-1 cells = assay: CellTiter-Glo cell viability, EBC-1; conditions: 72 h
Procedure: as §1, §2, §3, §4, §5, §6, §7, §8

[1] = top conc. 10 μM Compound 121, 100 μM cisplatin

For `N.N.[Cl][Pt][Cl]` [Cisplatin, reference compound], the GI50 (143B cells; read-out: Absolute GI50) was 1020 nM, the IC50 (143B cells; read-out: Absolute IC50) was 1080 nM and the “% inhibition at top conc.” value (143B cells; [1]) was 99.94%. For the same molecule, the GI50 (HT-1080 cells; read-out: Absolute GI50) was 1980 nM, the IC50 (HT-1080 cells; read-out: Absolute IC50) was 2220 nM and the “% inhibition at top conc.” value (HT-1080 cells; [1]) was 99.59%. The GI50 (KP4 cells; read-out: Absolute GI50) was 6870 nM, the IC50 (KP4 cells; read-out: Absolute IC50) was 8800 nM and the “% inhibition at top conc.” value (KP4 cells; [1]) was 98.30%. For the same molecule, the GI50 (HCT-15 cells; read-out: Absolute GI50) was 4270 nM, the IC50 (HCT-15 cells; read-out: Absolute IC50) was 4760 nM and the “% inhibition at top conc.” value (HCT-15 cells; [1]) was 98.22%. For the same molecule, the GI50 (MDA-MB-453 cells; read-out: Absolute GI50) was 7050 nM, the IC50 (MDA-MB-453 cells; read-out: Absolute IC50) was 9510 nM and the “% inhibition at top conc.” value (MDA-MB-453 cells; [1]) was 96.82%. The GI50 (JHH-5 cells; read-out: Absolute GI50) was 1970 nM, the IC50 (JHH-5 cells; read-out: Absolute IC50) was 2270 nM and the “% inhibition at top conc.” value (JHH-5 cells; [1]) was 87.18%. The GI50 (A-172 cells; read-out: Absolute GI50) was 15900 nM, the IC50 (A-172 cells; read-out: Absolute IC50) was 20300 nM and the “% inhibition at top conc.” value (A-172 cells; [1]) was 93.09%. The GI50 (NCI-H1155 cells; read-out: Absolute GI50) was 1520 nM, the IC50 (NCI-H1155 cells; read-out: Absolute IC50) was 1750 nM and the “% inhibition at top conc.” value (NCI-H1155 cells; [1]) was 90.61%. The GI50 (MX-1 cells; read-out: Absolute GI50) was 5690 nM, the IC50 (MX-1 cells; read-out: Absolute IC50) was 7120 nM and the “% inhibition at top conc.” value (MX-1 cells; [1]) was 98.97%. The GI50 (HUH-7 cells; read-out: Absolute GI50) was 2610 nM, the IC50 (HUH-7 cells; read-out: Absolute IC50) was 3540 nM and the “% inhibition at top conc.” value (HUH-7 cells; [1]) was 93.92%. The GI50 (HeLa cells; read-out: Absolute GI50) was 300 nM, the “% inhibition at top conc.” value (HeLa cells; [1]) was 99.60% and the GI50 (NCI-H1975 cells; read-out: Absolute GI50) was 5520 nM. For the same molecule, the IC50 (NCI-H1975 cells; read-out: Absolute IC50) was 6930 nM, the “% inhibition at top conc.” value (NCI-H1975 cells; [1]) was 98.75% and the GI50 (HL-60 cells; read-out: Absolute GI50) was 1340 nM. The IC50 (HL-60 cells; read-out: Absolute IC50) was 1460 nM, the “% inhibition at top conc.” value (HL-60 cells; [1]) was 99.99% and the GI50 (KARPAS-299 cells; read-out: Absolute GI50) was 1490 nM. The IC50 (KARPAS-299 cells; read-out: Absolute IC50) was 1630 nM, the “% inhibition at top conc.” value (KARPAS-299 cells; [1]) was 99.99% and the GI50 (NCI-H209 cells; read-out: Absolute GI50) was 140 nM. The IC50 (NCI-H209 cells; read-out: Absolute IC50) was 230 nM, the “% inhibition at top conc.” value (NCI-H209 cells; [1]) was 98.81% and the GI50 (PC-3 cells; read-out: Absolute GI50) was 4680 nM. For the same molecule, the IC50 (PC-3 cells; read-out: Absolute IC50) was 5940 nM, the “% inhibition at top conc.” value (PC-3 cells; [1]) was 83.88% and the GI50 (MES-SA/DX5 cells; read-out: Absolute GI50) was 1960 nM. For the same molecule, the IC50 (MES-SA/DX5 cells; read-out: Absolute IC50) was 2210 nM, the “% inhibition at top conc.” value (MES-SA/DX5 cells; [1]) was 99.94% and the GI50 (HuT 78 cells; read-out: Absolute GI50) was 500 nM. For the same molecule, the IC50 (HuT 78 cells; read-out: Absolute IC50) was 660 nM, the “% inhibition at top conc.” value (HuT 78 cells; [1]) was 98.27% and the GI50 (A2058 cells; read-out: Absolute GI50) was 2380 nM. For the same molecule, the IC50 (A2058 cells; read-out: Absolute IC50) was 3110 nM, the “% inhibition at top conc.” value (A2058 cells; [1]) was 99.85% and the GI50 (SNU-5 cells; read-out: Absolute GI50) was 2150 nM. The IC50 (SNU-5 cells; read-out: Absolute IC50) was 2500 nM, the “% inhibition at top conc.” value (SNU-5 cells; [1]) was 97.80% and the GI50 (EBC-1 cells; read-out: Absolute GI50) was 11800 nM. For the same molecule, the IC50 (EBC-1 cells; read-out: Absolute IC50) was 17300 nM and the “% inhibition at top conc.” value (EBC-1 cells; [1]) was 84.49%.

Reference: US20210196724A1, “BIARYL COMPOSITIONS AND METHODS FOR MODULATING A KINASE CASCADE” (Athenex, Inc., priority 2016, published 2021)
